Source: publication PMC7881127, “Cholesterol as a modulator of cannabinoid receptor CB2 signaling” (Scientific Reports, 2021)
“Also recorded” adds a separate entry of the source.

Columns and labels:
CB2 receptor = tested on: CB2 receptor; set-up: method as in PMID 30639103, PMID 18931146; conditions: previously reported; cited from earlier work
hCB2 [1] = target: T1, hCB2 (Homo sapiens, UniProt P34972); experiment: [35S]GTPγS binding assay in hCB2-CHO-K1 cell membranes; format: biochemical; conditions: for Emax: read-out: GTPγS binding Emax; for Functional effect on G-protein signaling (pharmacological category) / Reduced basal signaling: hCB2-expressing CHO cell membranes (PerkinElmer)
T1 construct: purchased PerkinElmer ES111-M400UA; host or cells: CHO-K1 cells stably transfected
Method: Figure 2 Affinity and functional effects of novel MRI ligands on CB2 receptor in CHO cell membranes. (a) binding affinities (nM) and Emax (% and nM) of [^35S]-GTPγS binding to CHO membranes (PerkinElmer, Cat. No ES111-M400UA) expressing hCB2. (b) [^35S]-GTPγS binding to membranes as a factor of ligand concentration. Binding of [^35S]-GTPγS was determined as described in “Methods”. Non-specific binding was defined as 0% activity. The assay of GTPγS non-specific binding contains non-radioactive GTPγS.
[^35S] GTPγS binding was assayed as described earlier[65] with slight modifications. Briefly, hCB2-CHO-K1 cell membranes (4 µg) were incubated with 0.05 nM [^35S] GTPγS, and the indicated concentrations of ligands in TEM buffer (50 mM Tris–HCl, 0.2 mM EGTA, and 9 mM MgCl2, pH 7.4) containing 100 µM GDP, 150 mM NaCl, and 0.1% (w/v) bovine serum albumin in a total volume of 1 ml for 60 min at 30 °C.

cannabinoid receptor CB2 = cannabinoid receptor CB2 (Homo sapiens, UniProt P34972); experiment: [35S]GTP nucleotide exchange (GEF) G protein activation assay on CB2 in cell membrane preparations; format: biochemical; set-up: purchased PerkinElmer; Millipore ChemiScreen; Applied Cell Sciences; Signal Screen (Sf9); E. coli BL21 (DE3) and Expi293F membranes were made in house; ES111-M400UA; A318; 6110130; host or cells: CHO, CHO-K1, Sf9, Expi293F, Expi293F GNTI-, E. coli BL21 (DE3); conditions: for Pharmacological category in GEF assay: ligand 2 μM
Description: To better understand the reason for these discrepancies, we assessed the activation of CB2 receptor by the in vitro G protein activation assay that measures the rates of nucleotide exchange on the Gα subunit of G protein (GEF assay) as described previously[33],[34]. The assay reports the rates of formation of the complex of [^35S]-GTPγS, a homolog of GTP, with the Gα subunit of G protein. Typical assay conditions require small (nanogram) quantities of the receptor protein either in cell membranes or reconstituted into lipid bilayers. The readout of the assay is the amount of the non-hydrolysable complex of Gα with [^35S]-GTPγS which, under selected experimental conditions, is proportional to the amount of activated receptor in the assay.
Figure 3 GEF of CB2 expressed in: (a) E. coli membranes and (b) CHO membranes (Millipore EMD). 2 μg of total protein per assay. Each point represents an average of four independent measurements (n = 4). Ligands were added at a concentration of 2 μM to ensure saturation of the receptor, and G protein was added as described in “Methods”. The dotted line indicates the rates of activation of G protein in the absence of a ligand. The rates of activation with […] are set to 100%, and rates of activation in the presence of SR-144,528 to 0%.
Figure 4 GEF on CB2 expressed in different cell lines. An amount of 2 μg of membrane protein per assay was used. Each data points represents an average of four independent measurements (n = 4) with error rates indicated by the bars. 100% represents full activation in the presence of 2 μM of CP-55,940, and 0%–with 2 μM SR-144,528.
The subunits of G protein were expressed and purified as described previously. The nucleotide exchange assay was performed as previously described.

hCB2 [2] = target: T1, hCB2; experiment: Radioligand ([3H]CP-55,940) displacement binding in hCB2-CHO-K1 cell membranes; conditions: hCB2-expressing CHO cell membranes (PerkinElmer), [3H]CP-55,940 displacement; read-out: CB2R binding hCB2R-Ki
Method: The assay was performed as described previously. […] Plasma membranes were from cultured CHO-K1 cells stably transfected with human CB2R (Perkin Elmer). Two microgram plasma membrane protein was used in a 1 mL reaction mixture. Ki values were derived by computerized curve fitting and using the Cheng-Prusoff equation to account for the affinity of the radioligand, using the GraphPad Prism 8 program (GraphPad Prism Software Inc.).

microglia = tested on: microglia; set-up: method as in PMID 16343349; conditions: cited from earlier work
natural killer cells = tested on: natural killer cells; set-up: method as in PMID 15749836; conditions: cited from earlier work
[3] = CB2 in CHO membranes (EMD Millipore)
[4] = CB2 in E. coli BL21 (DE3) membranes (untreated)

T1 sequence (P34972 whole entry): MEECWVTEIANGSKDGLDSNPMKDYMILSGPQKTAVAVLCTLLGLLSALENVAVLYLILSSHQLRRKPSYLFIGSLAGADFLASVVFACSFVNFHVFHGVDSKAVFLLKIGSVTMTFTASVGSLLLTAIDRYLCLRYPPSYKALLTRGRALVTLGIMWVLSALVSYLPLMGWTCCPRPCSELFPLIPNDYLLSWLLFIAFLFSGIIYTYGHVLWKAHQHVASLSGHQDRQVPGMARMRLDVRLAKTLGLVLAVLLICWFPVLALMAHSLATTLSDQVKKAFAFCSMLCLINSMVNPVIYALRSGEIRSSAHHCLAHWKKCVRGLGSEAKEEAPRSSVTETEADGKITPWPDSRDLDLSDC
Chain of cannabinoid receptor CB2 (P34972 whole entry): as above

Compound | Activity on the CB2 receptor (category) (CB2 receptor) | Emax (hCB2 [1]) [%] | Ki (hCB2 [2]) [nM] | EC50 (hCB2 [1]) [nM] | Functional effect on G-protein signaling (pharmacological category) (hCB2 [1]) | Reduced basal signaling (hCB2 [1]) [%] | also measured
COCCn1c(C)c(C)s/c1=N\C(=O)C1C(C)(C)C1(C)C [A-836339, 2,2,3,3-tetramethyl-cyclopropanecarboxylic acid [3-(2-methoxy-ethyl)-4,5-dimethyl-3H-thiazol-(2Z)-ylidene]-amide, reference compound] | agonist | – | – | – | – | – | –
CCCCCCC(C)(C)c1ccc([C@@H]2C[C@H](O)CC[C@H]2CCCO)c(O)c1 [CP55,940, 2-[(1R,2R,5R)-5-Hydroxy-2-(3-hydroxypropyl)cyclohexyl]-5-(2-methyloctan-2-yl)phenol, reference compound] | – | 275 ± 4 | – | – | – | – | –
CC(=O)OCCn1c(C)c(C)s/c1=N\C(=O)C1C(C)(C)C1(C)C [MRI-2594] | agonist | 276 ± 4 | 0.031 | 0.09 | full agonism | – | Pharmacological category in GEF assay (cannabinoid receptor CB2; [3]): (less-strong) agonist; Pharmacological category in GEF assay (cannabinoid receptor CB2; [4]): full agonist; also recorded: strong agonist
COc1ccc2c(c1)sc(=NC(=O)C1C(C)(C)C1(C)C)n2CCOC(C)=O [MRI-2653, 2-(6-Methoxy-2-((2,2,3,3-tetramethylcyclopropane-1-carbonyl)imino)benzo[d]thiazol-3(2H)-yl)ethyl acetate] | – | -46 ± 2 | 0.094 ± 0.011 | 0.5 ± 0.09 | inverse agonism | 55 | –
CC(=O)OCCn1c(=NC(=O)C2C(C)(C)C2(C)C)sc2cc(Br)ccc21 [MRI-2654, 2-(6-Bromo-2-((2,2,3,3-tetramethylcyclopropane-1-carbonyl)imino)benzo[d]thiazol-3(2H)-yl)ethyl acetate] | – | -23 ± 3 | 0.079 ± 0.009 | 0.76 ± 0.04 | inverse agonism; also recorded: inverse agonist | 55 | –
CC(=O)OCCn1c(=NC(=O)C2C(C)(C)C2(C)C)sc2cc(OC(F)(F)F)ccc21 [MRI-2659, 2-(2-((2,2,3,3-tetramethylcyclopropane-1-carbonyl)imino)-6-(trifluoromethoxy)benzo[d]thiazol-3(2H)-yl)ethyl acetate] | – | -55 ± 1 | 0.053 ± 0.01 | 0.25 ± 0.1 | inverse agonism | 55 | Pharmacological category in GEF assay (cannabinoid receptor CB2; [3]): strong inverse agonist; Pharmacological category in GEF assay (cannabinoid receptor CB2; [4]): strong inverse agonist
CC(=O)OCCn1c(=NC(=O)C2C(C)(C)C2(C)C)sc2cc(C)ccc21 [MRI-2687, 2-(6-methyl-2-((2,2,3,3-tetramethylcyclopropane-1-carbonyl)imino)benzo[d]thiazol-3(2H)-yl)ethyl acetate] | inverse agonist | -35 ± 1 | 0.1 ± 0.01 | 1.23 ± 0.09 | inverse agonism | 55 | –
CCCCCc1cc(O)c2c(c1)OC(C)(C)[C@@H]1CCC(C)=C[C@@H]21 [THC, Δ^9-tetrahydrocannabinol] | – | – | – | – | – | – | CB2 activity in suppressing interferon-γ-induced activation of microglia (microglia): full CB2 agonist; CB2 activity on 2-AG-induced migration of natural killer cells (natural killer cells): no CB2 agonist activity and acted as a CB2 antagonist
CC(C)CCC[C@@H](C)[C@H]1CC[C@H]2[C@@H]3CC=C4C[C@@H](O)CC[C@]4(C)[C@H]3CC[C@]12C [cholesterol] | – | – | – | – | – | – | Effect on constitutive (basal) activity of the CB2 receptor (cannabinoid receptor CB2; cell membrane preparations and liposomes): increases
methyl-β-cyclodextrin [MβCD, reference compound] | – | – | – | – | – | – | Effect on rates of activation of G protein on CB2 (cannabinoid receptor CB2; Expi293F membranes treated with 20 mM MβCD): decreased by about twofold
